Residues, ends and D or L forms follow the SMILES beside them.
Tests used:
Nav1.4 = test: Whole-cell patch clamp, Nav1.4 in HEK293 cells; type: cell-based, rat; details: 1 µM, −10 mV from −80 mV
Source text: Nine sodium channel subtypes have been identified and classified as TTX-S (Nav1.1–Nav1.4, Nav1.6, and Nav1.7) or TTX-R types (Nav1.5, Nav1.8, and Nav1.9). […] However, the subtype selectivity of JZTX-34 on the subtype of sodium channel is still unknown. In this work, effects of JZTX-34 on VGSC subtypes (Nav1.1–Nav1.8) were examined. Nav1.1–Nav1.7 were transfected into HEK293 cells and Nav1.8 currents were expressed in ND cells. Inward sodium currents were elicited by a 50 ms depolarizing potential to −10 mV from a holding potential of −80 mV every 5 s. […] No effects on other sodium channel subtypes were found (Nav1.1, Nav1.2, Nav1.4–Nav1.6, and Nav1.8) (Figure S2). […]
(§1) The HEK293T cells were maintained in standard culture conditions (5% CO2 and 37 °C). […] After culturing for 36–72 h, cells with obvious green fluorescence were selected for sodium currents recordings the internal solution for sodium currents recording that contained (in mM) 140 CsF, 5 NaCl, 10 HEPES, 3 Na2-ATP, and 10 EGTA. […]
(§2) Sodium currents were recorded from DRG, HEK293, and ND cells by the whole-cell patch-clamp technique at 25 °C. […] Experiments date were acquired from whole-cell Axon 700B patch clamp amplifier (Molecular Devices, Sunnyvale, CA, USA) and analyzed by the program Clampfit10.0 (Molecular Devices, Sunnyvale, CA, USA) and Sigmaplot. […]

[1] = test system: chimera #1, Nav1.5 (Nav1.7-DII-S3-S4); test: Whole-cell patch clamp, chimera #1 in HEK293 cells; type: cell-based, rat Nav1.5 / human Nav1.7; details: −10 mV from −80 mV
Source text: Many animal toxins alter activation or inactivation of sodium channels by binding to the S3–S4 regions of channels, which are probably the external linkers or voltage sensors of sodium channels. α-Scorpion toxins slow down fast-inactivation of sodium channels by binding to the extracellular linker loop of DIVS3-S4 (neurotoxin site 3). Meanwhile, β-scorpion toxins that interact with DIIS3-S4 linker enhance the activation of sodium channels by trapping DII voltage sensor in an activated state. As Nav1.5 channel is resistant to the inhibition of JZTX-34, we investigated the binding site of JZTX-34 to Nav1.7 by constructing chimeric channels between Nav1.5 and Nav1.7. […]
as §1, §2

CC(C)C[C@@H]1NC(=O)[C@H](Cc2c[nH]c3ccccc23)NC(=O)[C@H](CCC(=O)O)NC(=O)[C@H](CCCNC(=N)N)NC(=O)[C@@H](NC(=O)[C@H](C)N)CSSC[C@@H]2NC(=O)[C@@H]3CSSC[C@@H](C(=O)N[C@H](C(=O)N[C@@H](Cc4c[nH]c5ccccc45)C(=O)N[C@@H](CC(=O)O)C(=O)N[C@@H](Cc4c[nH]c5ccccc45)C(=O)N[C@H](C(=O)N[C@H](C(=O)O)C(C)C)[C@@H](C)O)C(C)C)NC(=O)[C@H](Cc4c[nH]cn4)NC(=O)[C@H](Cc4ccc(O)cc4)NC(=O)[C@@H]4CCCN4C(=O)[C@H](Cc4c[nH]c5ccccc45)NC(=O)[C@H](CCCCN)NC(=O)[C@H](CCCCN)NC(=O)[C@H](CCCNC(=N)N)NC(=O)[C@H](CSSC[C@H](NC(=O)CNC(=O)CNC1=O)C(=O)N[C@@H](CO)C(=O)N[C@@H](CCCCN)C(=O)N[C@@H](CC(=O)O)C(=O)N[C@@H](C)C(=O)N[C@@H](CC(=O)O)C(=O)N3)NC(=O)[C@H](CCC(=O)O)NC(=O)[C@H](CC(C)C)NC(=O)[C@H](Cc1c[nH]cn1)NC(=O)[C@H](C)NC2=O [JZTX-34, Jingzhaotoxin-34] (HELM PEPTIDE1{A.C.R.E.W.L.G.G.C.S.K.D.A.D.C.C.A.H.L.E.C.R.K.K.W.P.Y.H.C.V.W.D.W.T.V}$PEPTIDE1,PEPTIDE1,2:R3-16:R3|PEPTIDE1,PEPTIDE1,9:R3-21:R3|PEPTIDE1,PEPTIDE1,15:R3-29:R3$$$V2.0; N-terminus and C-terminus assumed)
effect on Nav1.4 currents (Nav1.4): No effects | inhibition of chimera #1 currents ([1]; 1 µM): 47.6 ± 3.6% | inhibition of chimera #1 currents ([1]; 10 µM): 79.5 ± 2.8%
